Publication PMC2248166, “Quantitative peptide binding motifs for 19 human and mouse MHC class I molecules derived using positional scanning combinatorial peptide libraries” (Immunome Research, 2008)

What was measured:
Assay type in all cases: binding
[1] = molecular target: HLA B*0801 (Homo sapiens, UniProt P01889, A93T/A95T/D138N/E176V/E187T/K202T/Q94N/R180D/S35A/V36M/Y33D/Y91F); assay: biochemical
[2] = molecular target: H-2 D^d (Mus musculus, UniProt P01900)
[3] = molecular target: HLA B*5301 (Homo sapiens, UniProt P01889, A329T/A93T/A95T/C349S/D201E/D98Y/E176V/E187L/E204Q/E69T/G107R/I218V/K202T/L105A/L119I/N104I/Q94N/R106L/R155S/R180L/S101N/S121R/S35A/S48A/T118I/V127L/V306I/V36M/Y140S/Y91F)
[4] = molecular target: HLA B*5101 (Homo sapiens, UniProt P01889, A329T/A93T/A95T/C349S/D138N/D201E/D98Y/E187L/E204Q/E69T/G107R/I218V/K202T/L105A/L119W/N104I/Q94N/R106L/R155S/R180L/S101N/S121T/S35A/S48A/V306I/V36M/Y195H/Y91F)
[5] = molecular target: HLA B*5802 (Homo sapiens, UniProt P01889, A329T/C349S/D201E/D98Y/E176V/E187L/E204Q/E69T/G107R/I218V/I90N/K202T/L105A/N104I/N87E/Q89R/Q94S/R106L/R155S/R180L/R86G/S101N/S121W/S35A/S48A/V127L/V306I/V36M/Y140S/Y91M)
[6] = molecular target: HLA A*6802 (Homo sapiens, UniProt P04439, A269V/D140Y/D185E/E176V/E277Q/E87N/F33Y/G231S/I121R/I166T/I218V/L180W/L300P/L318F/N151K/P208A/P217A/Q86R/R138H/R169H/S129P/T345S/V36M)
[7] = molecular target: H-2 K^d (Mus musculus, UniProt P01902)
Chain of H-2 K^d (P01887 21-119): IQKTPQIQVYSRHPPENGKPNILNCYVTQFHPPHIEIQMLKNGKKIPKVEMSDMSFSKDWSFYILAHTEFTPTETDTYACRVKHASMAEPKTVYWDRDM
Chain of H-2 K^d (P01902 22-368): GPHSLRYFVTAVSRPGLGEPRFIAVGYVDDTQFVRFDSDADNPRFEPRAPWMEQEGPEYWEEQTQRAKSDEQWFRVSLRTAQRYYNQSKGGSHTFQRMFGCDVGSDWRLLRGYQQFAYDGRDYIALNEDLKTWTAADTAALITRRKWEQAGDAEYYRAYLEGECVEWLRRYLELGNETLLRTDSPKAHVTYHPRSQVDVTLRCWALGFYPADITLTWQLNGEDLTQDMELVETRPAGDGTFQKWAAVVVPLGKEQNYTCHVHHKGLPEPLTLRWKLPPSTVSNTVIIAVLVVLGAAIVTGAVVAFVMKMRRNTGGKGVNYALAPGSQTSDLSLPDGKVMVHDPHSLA

[8] = molecular target: HLA B*5801 (Homo sapiens, UniProt P01889, A329T/C349S/D201E/D98Y/E176V/E187L/E204Q/E69T/G107R/I218V/I90N/K202T/L105A/L119I/N104I/N87E/Q89R/Q94S/R106L/R155S/R180L/R86G/S101N/S121R/S35A/S48A/T118I/V127L/V306I/V36M/Y140S/Y91M)
[9] = molecular target: HLA B*3501 (Homo sapiens, UniProt P01889, A329T/A93T/A95T/C349S/D201E/D98Y/E176V/E187L/E204Q/E69T/I218V/K202T/L119I/Q94N/R155S/R180L/S121R/S35A/S48A/T118I/V127L/V306I/V36M/Y140S/Y91F)
[10] = molecular target: HLA A*3201 (Homo sapiens, UniProt P04439, A270S/D101S/D185E/E176V/E277Q/F133L/G103R/G107R/G231S/H175R/I121M/I218V/I322F/K168Q/L105A/L300P/L318F/M331R/P208A/P217A/Q94H/R106L/R138Q/S129P/T104I/T323A/T345S/V100E/V321M/V358M); assay: biochemical
[11] = molecular target: HLA A*3001 (Homo sapiens, UniProt P04439, D140H/D185E/E176W/F33S/G80R/H175R/K168Q/R138E/R41S); assay: biochemical
[12] = molecular target: H-2 K^k (Mus musculus, UniProt P04223)
Chain of H-2 K^k (P01887 21-119): as the sequence (P01887 21-119) above
Chain of H-2 K^k (P04223 22-369): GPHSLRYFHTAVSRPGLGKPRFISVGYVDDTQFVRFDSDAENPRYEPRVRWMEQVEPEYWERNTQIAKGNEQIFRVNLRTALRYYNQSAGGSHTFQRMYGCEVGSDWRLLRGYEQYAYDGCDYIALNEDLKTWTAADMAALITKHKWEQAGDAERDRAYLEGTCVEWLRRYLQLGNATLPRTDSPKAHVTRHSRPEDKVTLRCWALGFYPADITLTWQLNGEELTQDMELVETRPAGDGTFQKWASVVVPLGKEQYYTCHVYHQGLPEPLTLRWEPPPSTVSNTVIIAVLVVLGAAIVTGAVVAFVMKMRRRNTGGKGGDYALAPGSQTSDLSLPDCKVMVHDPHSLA

[13] = molecular target: H-2 D^b (Mus musculus, UniProt P01899)
Chain of H-2 D^b (P01887 21-119): as the sequence (P01887 21-119) above
Chain of H-2 D^b (P01899 25-362): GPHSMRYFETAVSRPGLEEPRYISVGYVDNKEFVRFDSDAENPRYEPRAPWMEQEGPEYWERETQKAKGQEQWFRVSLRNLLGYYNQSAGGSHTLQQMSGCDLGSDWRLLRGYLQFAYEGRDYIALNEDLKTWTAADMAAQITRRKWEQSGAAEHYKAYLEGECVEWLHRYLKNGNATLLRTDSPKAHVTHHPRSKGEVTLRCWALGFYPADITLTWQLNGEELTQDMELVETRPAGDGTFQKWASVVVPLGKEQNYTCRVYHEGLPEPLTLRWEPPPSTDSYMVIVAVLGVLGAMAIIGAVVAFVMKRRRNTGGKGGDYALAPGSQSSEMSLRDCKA

[14] = molecular target: HLA B*5401 (Homo sapiens, UniProt P01889, A329T/C349S/D138N/D201E/E176V/E187T/E204Q/E69G/I76V/K202T/L119W/R155S/R180L/S121T/S35A/S48A/V127L/V306I/V36M/Y140L)
[15] = molecular target: HLA B*1503 (Homo sapiens, UniProt P01889, A329T/A93T/A95T/C349S/D201E/D98Y/E187L/E204Q/K202T/N87E/Q94N/R155S/R180L/S121R/S35A/V306I/V36M/Y140S/Y91S); assay: biochemical
[16] = molecular target: HLA B*1501 (Homo sapiens, UniProt P01889, A329T/A93T/A95T/C349S/D201E/D98Y/E187L/E204Q/E69M/E70A/K202T/N87E/Q94N/R155S/R180W/S121R/S35A/S48A/V306I/V36M/Y140S/Y91S); assay: biochemical

Chain of H-2 D^d (P01900 whole entry, looked up): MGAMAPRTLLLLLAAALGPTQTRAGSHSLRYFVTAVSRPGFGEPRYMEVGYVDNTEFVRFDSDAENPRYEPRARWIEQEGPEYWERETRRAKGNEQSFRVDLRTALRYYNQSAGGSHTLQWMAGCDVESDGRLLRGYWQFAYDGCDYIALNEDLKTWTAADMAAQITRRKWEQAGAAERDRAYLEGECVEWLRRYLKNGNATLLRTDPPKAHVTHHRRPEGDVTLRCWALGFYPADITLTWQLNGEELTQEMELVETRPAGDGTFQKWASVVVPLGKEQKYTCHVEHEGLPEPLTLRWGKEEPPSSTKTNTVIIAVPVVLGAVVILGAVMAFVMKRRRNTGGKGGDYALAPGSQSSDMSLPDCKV

## XXXXXMXXX [3064.0111]
[1]
  Normalized average relative binding affinity(ARB): 0.031
[2]
  Normalized average relative binding affinity(ARB): 0.48
[3]
  Normalized average relative binding affinity(ARB): 0.23
[4]
  Normalized average relative binding affinity(ARB): 0.52
[5]
  Normalized average relative binding affinity(ARB): 0.24
[6]
  Normalized average relative binding affinity(ARB): 0.14
[7]
  Normalized average relative binding affinity(ARB): 0.31
[8]
  Normalized average relative binding affinity(ARB): 0.41
[9]
  Normalized average relative binding affinity(ARB): 0.18
[10]
  Normalized average relative binding affinity(ARB): 0.44
[11]
  Normalized average relative binding affinity(ARB): 0.18
[12]
  Normalized average relative binding affinity(ARB): 0.36
[13]
  Normalized average relative binding affinity(ARB): 0.52
[14]
  Normalized average relative binding affinity(ARB): 0.43
[15]
  Normalized average relative binding affinity(ARB): 0.43
[16]
  Normalized average relative binding affinity(ARB): 0.44

## XXXXXNXXX [3064.0112]
[1]
  Normalized average relative binding affinity(ARB): 0.039
[2]
  Normalized average relative binding affinity(ARB): 0.39
[3]
  Normalized average relative binding affinity(ARB): 0.13
[4]
  Normalized average relative binding affinity(ARB): 0.40
[5]
  Normalized average relative binding affinity(ARB): 1.0
[6]
  Normalized average relative binding affinity(ARB): 0.45
[7]
  Normalized average relative binding affinity(ARB): 0.22
[8]
  Normalized average relative binding affinity(ARB): 0.027
[9]
  Normalized average relative binding affinity(ARB): 0.16
[10]
  Normalized average relative binding affinity(ARB): 0.73
[11]
  Normalized average relative binding affinity(ARB): 0.13
[12]
  Normalized average relative binding affinity(ARB): 0.32
[13]
  Normalized average relative binding affinity(ARB): 0.56
[14]
  Normalized average relative binding affinity(ARB): 0.29
[15]
  Normalized average relative binding affinity(ARB): 0.0067
[16]
  Normalized average relative binding affinity(ARB): 0.26

## XXXXXPXXX [3064.0113]
[1]
  Normalized average relative binding affinity(ARB): 0.039
[2]
  Normalized average relative binding affinity(ARB): 0.094
[3]
  Normalized average relative binding affinity(ARB): 0.15
[4]
  Normalized average relative binding affinity(ARB): 0.067
[5]
  Normalized average relative binding affinity(ARB): 0.39
[6]
  Normalized average relative binding affinity(ARB): 0.57
[7]
  Normalized average relative binding affinity(ARB): 0.15
[8]
  Normalized average relative binding affinity(ARB): 0.20
[9]
  Normalized average relative binding affinity(ARB): 0.14
[10]
  Normalized average relative binding affinity(ARB): 0.27
[11]
  Normalized average relative binding affinity(ARB): 0.19
[12]
  Normalized average relative binding affinity(ARB): 0.38
[13]
  Normalized average relative binding affinity(ARB): 0.23
[14]
  Normalized average relative binding affinity(ARB): 0.15
[15]
  Normalized average relative binding affinity(ARB): 0.47
[16]
  Normalized average relative binding affinity(ARB): 0.11

## XXXXXQXXX [3064.0114]
[1]
  Normalized average relative binding affinity(ARB): 0.031
[2]
  Normalized average relative binding affinity(ARB): 0.51
[3]
  Normalized average relative binding affinity(ARB): 0.13
[4]
  Normalized average relative binding affinity(ARB): 0.39
[5]
  Normalized average relative binding affinity(ARB): 0.46
[6]
  Normalized average relative binding affinity(ARB): 0.085
[7]
  Normalized average relative binding affinity(ARB): 0.19
[8]
  Normalized average relative binding affinity(ARB): 0.57
[9]
  Normalized average relative binding affinity(ARB): 0.12
[10]
  Normalized average relative binding affinity(ARB): 0.15
[11]
  Normalized average relative binding affinity(ARB): 0.21
[12]
  Normalized average relative binding affinity(ARB): 0.12
[13]
  Normalized average relative binding affinity(ARB): 0.55
[14]
  Normalized average relative binding affinity(ARB): 0.11
[15]
  Normalized average relative binding affinity(ARB): 0.53
[16]
  Normalized average relative binding affinity(ARB): 0.21

## XXXXXRXXX [3064.0115]
[1]
  Normalized average relative binding affinity(ARB): 0.15
[2]
  Normalized average relative binding affinity(ARB): 0.42
[3]
  Normalized average relative binding affinity(ARB): 0.095
[4]
  Normalized average relative binding affinity(ARB): 0.27
[5]
  Normalized average relative binding affinity(ARB): 0.36
[6]
  Normalized average relative binding affinity(ARB): 0.43
[7]
  Normalized average relative binding affinity(ARB): 1.0
[8]
  Normalized average relative binding affinity(ARB): 0.25
[9]
  Normalized average relative binding affinity(ARB): 0.088
[10]
  Normalized average relative binding affinity(ARB): 0.36
[11]
  Normalized average relative binding affinity(ARB): 0.21
[12]
  Normalized average relative binding affinity(ARB): 0.39
[13]
  Normalized average relative binding affinity(ARB): 0.50
[14]
  Normalized average relative binding affinity(ARB): 0.11
[15]
  Normalized average relative binding affinity(ARB): 0.51
[16]
  Normalized average relative binding affinity(ARB): 0.13

## XXXXXSXXX [3064.0116]
[1]
  Normalized average relative binding affinity(ARB): 0.052
[2]
  Normalized average relative binding affinity(ARB): 0.63
[3]
  Normalized average relative binding affinity(ARB): 0.17
[4]
  Normalized average relative binding affinity(ARB): 0.32
[5]
  Normalized average relative binding affinity(ARB): 0.055
[6]
  Normalized average relative binding affinity(ARB): 0.57
[7]
  Normalized average relative binding affinity(ARB): 0.25
[8]
  Normalized average relative binding affinity(ARB): 0.45
[9]
  Normalized average relative binding affinity(ARB): 0.33
[10]
  Normalized average relative binding affinity(ARB): 0.80
[11]
  Normalized average relative binding affinity(ARB): 0.44
[12]
  Normalized average relative binding affinity(ARB): 0.70
[13]
  Normalized average relative binding affinity(ARB): 0.70
[14]
  Normalized average relative binding affinity(ARB): 0.18
[15]
  Normalized average relative binding affinity(ARB): 0.51
[16]
  Normalized average relative binding affinity(ARB): 0.35

## XXXXXTXXX [3064.0117]
[1]
  Normalized average relative binding affinity(ARB): 0.068
[2]
  Normalized average relative binding affinity(ARB): 1.0
[3]
  Normalized average relative binding affinity(ARB): 0.30
[4]
  Normalized average relative binding affinity(ARB): 0.32
[5]
  Normalized average relative binding affinity(ARB): 0.17
[6]
  Normalized average relative binding affinity(ARB): 0.84
[7]
  Normalized average relative binding affinity(ARB): 0.26
[8]
  Normalized average relative binding affinity(ARB): 0.72
[9]
  Normalized average relative binding affinity(ARB): 0.16
[10]
  Normalized average relative binding affinity(ARB): 0.77
[11]
  Normalized average relative binding affinity(ARB): 0.27
[12]
  Normalized average relative binding affinity(ARB): 0.70
[13]
  Normalized average relative binding affinity(ARB): 0.55
[14]
  Normalized average relative binding affinity(ARB): 0.32
[15]
  Normalized average relative binding affinity(ARB): 0.79
[16]
  Normalized average relative binding affinity(ARB): 0.55

## XXXXXVXXX [3064.0118]
[1]
  Normalized average relative binding affinity(ARB): 0.077
[2]
  Normalized average relative binding affinity(ARB): 0.63
[3]
  Normalized average relative binding affinity(ARB): 0.65
[4]
  Normalized average relative binding affinity(ARB): 0.20
[5]
  Normalized average relative binding affinity(ARB): 0.26
[6]
  Normalized average relative binding affinity(ARB): 0.60
[7]
  Normalized average relative binding affinity(ARB): 0.32
[8]
  Normalized average relative binding affinity(ARB): 0.72
[9]
  Normalized average relative binding affinity(ARB): 0.34
[10]
  Normalized average relative binding affinity(ARB): 1.0
[11]
  Normalized average relative binding affinity(ARB): 0.22
[12]
  Normalized average relative binding affinity(ARB): 0.59
[13]
  Normalized average relative binding affinity(ARB): 0.51
[14]
  Normalized average relative binding affinity(ARB): 0.17
[15]
  Normalized average relative binding affinity(ARB): 0.78
[16]
  Normalized average relative binding affinity(ARB): 0.37
